Here are results for three molecules from publication PMC4745926, “Absorption, Metabolism, and Excretion by Freely Moving Rats of 3,4-DHPEA-EDA and Related Polyphenols from Olive Fruits (Olea europaea)” (Journal of Nutrition and Metabolism, 2016).

“And” between values parts separate entries of the source, which are not always exact repeats. Equal values may be shown once. “Also recorded” adds a separate entry of the source.

This data set is described as follows: Urinary excretion after oral administration. The class given is in vivo, Wistar ST rats. On the procedure: SPF Wistar ST rats (6 weeks of age, male, 180 ± 20 g of body weight) were purchased from Japan SLC Inc. (Hamamatsu, Japan). The rats were housed in an air-conditioned room at 22 ± 2°C under cycles of 12 hours dark and 12 hours light and given free access to a commercial diet and water for a week. The rats were then fasted for over 16 hours before the experiments. The present study was approved by the Animal Care and Use Committee at Kagawa University, and the rat treatment conformed to the Rules of Animal Experiments at Kagawa University. 3,4-[…] (300 mg/kg body weight; 936.51 μmol/kg) dissolved in 50% polyethylene glycol aqueous solution was administered orally via a stomach tube to the portal vein cannulated rats. Blood samples (450 μL) were then collected using a heparinized syringe attached to the cannula before administration and 5, 15, 30, 60, 120, and 240 min after administration. Urine was also collected before administration and 0 to 2 h and 2 to 4 h after administration. For intravenous administration, 3,4-[…] (10 mg/kg; 31.22 μmol/kg) was injected into the jugular vein, and blood (450 μL) was collected using a heparinized syringe before administration and 5, 15, 30, 60, 120, and 240 min after administration via the jugular vein cannula. The blood (450 μL) collected was immediately cooled on ice and centrifuged at 15,000 rpm for 5 min at 4°C to obtain over 200 μL plasma. Urine was also collected before administration and 0 to 2 h and 2 to 4 h after administration. Bile was collected via the bile duct cannula before administration and 0 to 2 h and 2 to 4 h after intravenous administration. The collected plasma, urine, and bile were immediately stored in an ice box until further analyses. HT (oral administration: 100 mg/kg; 648.66 μmol/kg, intravenous administration: 10 mg/kg; 64.87 μmol/kg) and Ole (oral administration: 300 mg/kg; 555.02 μmol/kg, intravenous administration: 10 mg/kg; 18.50 μmol/kg) were investigated using the same method as described above. Metabolites were deconjugated by using β-glucuronidase (500 U) and sulfatase (50 U) in 50 μL 625 mM MOPS (pH 6.8), which was added to 200 μL of plasma, urine, or bile. The mixture was incubated for 45 min at 37°C and subjected to extraction using QuEChERS [33]. […] Shimadzu, Kyoto, Japan) equipped with a Shim-pack XR-ODS column (3.0 mm I.D. × 100 mm; Shimadzu, Kyoto, Japan) at 40°C with a mobile phase of 0.5% TFA-1% acetonitrile aqueous solution (A) and 0.5% TFA-75% acetonitrile aqueous solution (B). The elution conditions are described as follows: isocratic elution of 0% B was maintained for 4.0 min; linear gradient 0 to 4% B, 4.0-4.5 min; linear gradient 4.0-16.0% B, 4.5-16.0 min; linear gradient 16.0-100% B, 16.0-25.0 min; isocratic elution of 100% B, 25.0-26.0 min; and linear gradient 100 to 0% B, 26.0-26.1 min, with a flow rate of 0.5 mL/min. Injection volume was 50 μL. All eluted peaks were detected at 279 nm with a diode array detector (SPD-M20A; Shimadzu, Kyoto, Japan).

Where [1] appears, read: after oral administration, within 240 min.

Take `CC=C(C=O)C(CC=O)CC(=O)OCCc1ccc(O)c(O)c1` (centres unmarked) [3,4-DHPEA-EDA, 3,4-dihydroxyphenylethyl elenolate dialdehydic form]: the “Detection of 3,4-DHPEA-EDA in urine” value (after oral administration) is “not observed; also recorded: not detected”. Under setting [1], the HT in urine is recorded as 0.51 % of dose; the HVA in urine is 0.38 % of dose and 0.39 % of dose; the HVAOH in urine entry was “not detected”. Further, where the note is “urine after oral administration, Ole = 1”, the “total excretion ratio including metabolites (3,4-DHPEA-EDA : HT : Ole)” value is on record as 12.9. Besides, where the note is “within 240 min after oral administration”, the “Total metabolites (including intact compound) excreted in the urine” value is 0.9%.
Regarding `OCCc1ccc(O)c(O)c1` [Hydroxytyrosol, 2-(3,4-dihydroxyphenyl) ethyl alcohol, reference compound], the HT in urine under setting [1] is given as 1.14 % of dose.
As for `C/C=C1/[C@H](O[C@@H]2O[C@H](CO)[C@@H](O)[C@H](O)[C@H]2O)OC=C(C(=O)OC)[C@H]1CC(=O)OCCc1ccc(O)c(O)c1` [Oleuropein, reference compound], for the setting “after oral administration”, the Ole in urine was 0.07 % of dose.
